In article PMC3198391, “Mechanism of Disruption of the Amt-GlnK Complex by PII-Mediated Sensing of 2-Oxoglutarate” (PLoS ONE, 2011):

Assays:
Af-GlnK3 [1] = molecular target: T1, Af-GlnK3 (Archaeoglobus fulgidus, UniProt O28524, F97I); assay: isothermal titration calorimetry, one-site model; format: binding; settings: read-out: Dissociation constantKD
T1 construct: full length, pET21a, C-terminal pentahistidine tag kept, three Ala (113-115) inserted in linker before tag; E. coli BL21(DE3) Rosetta; 13 kDa monomer, homotrimer; forward primer encodes MKMVVAVI, reverse end TGDEEV; sites between monomers
Description: (§1) isothermal titration calorimetry, one-site model on Af-GlnK3

Af-GlnK3 [2] = molecular target: T2, Af-GlnK3 (Archaeoglobus fulgidus, UniProt O28524); assay: isothermal titration calorimetry, one-site model; format: binding; settings: read-out: Dissociation constantKD
T2 construct: full length, pET21a, C-terminal pentahistidine tag kept, three Ala (113-115) inserted in linker before tag; E. coli BL21(DE3) Rosetta; 13 kDa monomer, homotrimer; forward primer encodes MKMVVAVI, reverse end TGDEEV; sites between monomers
Description: as §1

Af-GlnK3 [3] = molecular target: T3, Af-GlnK3 (Archaeoglobus fulgidus, UniProt O28524, F97P); assay: isothermal titration calorimetry, one-site model; format: binding; settings: read-out: Dissociation constantKD
T3 construct: full length, pET21a, C-terminal pentahistidine tag kept, three Ala (113-115) inserted in linker before tag; E. coli BL21(DE3) Rosetta; 13 kDa monomer, homotrimer; forward primer encodes MKMVVAVI, reverse end TGDEEV; sites between monomers
Description: as §1

[4] = molecular target: Af-GlnK3 (Archaeoglobus fulgidus) (UniProt O28524); assay: crystal structure; vapour diffusion, sitting drop, trimer fraction from size exclusion chromatography; crystals as isolated, soaked with MgATP or MgADP, or co-crystallised with MgATP and 2-OG
[5] = molecular target: Af-GlnK3 (Archaeoglobus fulgidus) (UniProt O28524); assay: SEC; gel filtration during purification; 50 mM Tris-HCl pH 8.0, 300 mM NaCl

Af-GlnK3 (from UniProt O28524 1-120) (natural protein), sequence (O28524 whole entry): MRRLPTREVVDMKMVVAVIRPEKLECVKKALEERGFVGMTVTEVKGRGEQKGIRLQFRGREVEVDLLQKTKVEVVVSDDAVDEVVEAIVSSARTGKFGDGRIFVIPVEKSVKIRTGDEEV
T2 sequence (O28524 12-120): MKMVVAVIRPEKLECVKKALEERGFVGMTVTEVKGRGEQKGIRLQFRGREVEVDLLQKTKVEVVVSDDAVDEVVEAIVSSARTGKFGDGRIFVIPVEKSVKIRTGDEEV
T3 sequence (O28524 12-120 F97P): as the sequence (O28524 12-120) above, with F86P counted along it
T1 sequence (O28524 12-120 F97I): as the sequence (O28524 12-120) above, with F86I counted along it

`Nc1ncnc2c1ncn2[C@@H]1O[C@H](COP(=O)(O)OP(=O)(O)OP(=O)(O)O)[C@@H](O)[C@H]1O` [ATP] showed a Kd (Af-GlnK3 [1]) of 149 µM, a Kd (Af-GlnK3 [2]) of 338 µM and a Kd (Af-GlnK3 [3]) of 128 µM.

“Af-GlnK3 (from UniProt O28524 1-120) (natural protein)” showed a stoichiometry N [4] of 3 and a stoichiometry N [5] of 3.

`Nc1ncnc2c1ncn2[C@@H]1O[C@H](COP(=O)(O)OP(=O)(O)O)[C@@H](O)[C@H]1O` [ADP] was tested, and the Kd (Af-GlnK3 [1]) was 373 µM, the Kd (Af-GlnK3 [2]) was 568 µM and the Kd (Af-GlnK3 [3]) was 102 µM.
